Values quoted from earlier work in US6723737B1 (priority 1999, dated 2004).

What was measured:
young men = details: after caffeine ingestion, statistically significant
[1] = tested on: genetically obese experimental animals

Row | Compound | levels of free fatty acids (young men) | weight loss [1]
1 | Cn1c(=O)c2c(ncn2C)n(C)c1=O [caffeine, 1,3,7-trimethylxanthine] | increased the levels of free fatty acids | did not produce weight loss
2 | Cn1c(=O)c2[nH]cnc2n(C)c1=O [theophylline, 1,3-dimethylxanthine] | – | did not produce weight loss
